The numbers were not newly measured in US20080293820A1, “METHODS FOR IMPROVING PHYSICAL FUNCTION IN FIBROMYALGIA” (Cypress Bioscience, Inc., priority 2007, published 2008), which cites them from elsewhere.

Where a name gives a salt, the structure may show the parent alone.

In this data set the test system is fibromyalgia patients. The conditions noted are these: cited from earlier work.
Where [1] appears, read: both milnacipran treatment groups (QD and BID), escalation to maximum 200 mg/day.

In the case of `CCN(CC)C(=O)C1(c2ccccc2)CC1CN` (racemic) [milnacipran, Z-2-aminomethyl-1-phenyl-N,N-diethylcyclopropanecarboxamide hydrochloride], the “effect on the symptom of pain in FMS (in words)” value (100 mg BID) is “effective acute (short-term) therapy”. Further, under setting [1], the “PGIC: completers who reported an improvement in their overall status” value is “over 70%” and the “PGIC: completers who reported worsening” value was 10%.
